# Reference: paper PMC6835155, “Lessons from LIMK1 enzymology and their impact on inhibitor design” (Biochemical Journal, 2019)
# Structures can show the parent of a compound that is named as a salt.
# What was measured:
# [1] = biological target: T1, LIMK1KD (Homo sapiens, UniProt P53667); assay: Differential (dynamic) scanning fluorimetry (DSF) assay, LIMK1KD; assay type: binding; conditions: 2 µM LIMK1KD, compound 10 µM, single shot; for ΔTm at 10 µM: read-out: TM Shift LIMK1 (K)
# T1 construct: His6 (N, cleaved yes); made in house; host or cells: baculovirus; Sf9 for virus, TriEx insect cells for expression
# T1 sequence (P53667 330-637): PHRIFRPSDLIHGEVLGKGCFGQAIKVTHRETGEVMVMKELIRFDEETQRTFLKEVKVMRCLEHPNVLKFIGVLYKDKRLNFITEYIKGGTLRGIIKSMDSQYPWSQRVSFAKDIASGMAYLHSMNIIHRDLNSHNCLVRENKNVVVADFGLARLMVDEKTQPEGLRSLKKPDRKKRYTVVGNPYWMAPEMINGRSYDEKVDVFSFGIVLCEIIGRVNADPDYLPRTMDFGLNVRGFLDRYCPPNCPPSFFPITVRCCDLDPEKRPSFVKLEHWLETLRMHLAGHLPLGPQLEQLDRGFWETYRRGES
# [2] = biological target: T2, LIMK2KD (Homo sapiens, UniProt P53671); assay: Differential (dynamic) scanning fluorimetry (DSF) assay, LIMK2KD; assay type: binding; conditions: LIMK2KD, compound 10 µM, single shot; for ΔTm at 10 µM: read-out: TM Shift LIMK2 (K)
# T2 construct: The cDNA coding for LIMK2 residues 330 to 632 was PCR amplified; His6 (N, cleaved yes); made in house; host or cells: baculovirus; Sf9 for virus, TriEx insect cells for expression
# T2 sequence (P53671 330-632): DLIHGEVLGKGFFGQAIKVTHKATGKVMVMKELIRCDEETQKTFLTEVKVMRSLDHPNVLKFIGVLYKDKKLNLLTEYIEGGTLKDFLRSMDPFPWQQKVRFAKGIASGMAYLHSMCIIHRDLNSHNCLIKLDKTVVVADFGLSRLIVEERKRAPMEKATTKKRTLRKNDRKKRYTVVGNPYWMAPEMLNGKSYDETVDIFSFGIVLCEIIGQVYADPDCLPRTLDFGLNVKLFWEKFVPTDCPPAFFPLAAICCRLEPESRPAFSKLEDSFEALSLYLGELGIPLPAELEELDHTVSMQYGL
Structure (SMILES),TM Shift LIMK1 (K) [1] [K],TM Shift LIMK2 (K) [2] [K],ΔTm at 10 µM [1] [°C],ΔTm at 10 µM [2] [°C],further results
Cc1ccc(NC(=O)c2cccc(N(C)C)c2)cc1NC(=O)c1ccc(O)cc1 [ZM 336372],0.7,0.2,,,
C=CCn1c(=O)c2cnc(Nc3ccc(N4CCN(C)CC4)cc3)nc2n1-c1cccc(C(C)(C)O)n1 [MK-1775],,,1.2,0,
O=C(Nc1cccc(Cl)c1)Nc1ncc(CCNc2ncnc3ccsc23)s1 [SNS-314 Mesylate],,,-0.5,0.8,
"COc1cc2c(Oc3ccc4[nH]c(C)cc4c3F)ncnc2cc1OCCCN1CCCC1 [Cediranib (AZD2171), Cediranib]",,,-0.2,0.5,
"COc1cc2nccc(Oc3ccc(NC(=O)C4(C(=O)Nc5ccc(F)cc5)CC4)cc3)c2cc1OC [Cabozantinib (XL184, BMS-907351), Cabozantinib]",,,2.5,0.6,
COc1cc(N2CCC(N3CCN(C)CC3)CC2)ccc1Nc1ncnc(Nc2ccccc2S(=O)(=O)C(C)C)n1 [ASP3026],,,3.7,1.4,
C[C@@H]1CN(CC(=O)Nc2ccc3c(c2)Cc2cccc(-c4cc(=O)cc(N5CCOCC5)o4)c2S3)C[C@H](C)O1 [KU-60019],,,0.5,0.6,
O=c1[nH]c2ccc(Cl)cc2c(N[C@@H]2CN3CCC2CC3)c1-c1nc2ccccc2[nH]1 [CHIR-124],2.2,-1.7,,,
Cn1c(Nc2ccc(C(F)(F)F)cc2)nc2cc(Oc3ccnc(-c4ncc(C(F)(F)F)[nH]4)c3)ccc21 [RAF265 (CHIR-265)],,,1.1,5.1,
CCCS(=O)(=O)Nc1ccc(F)c(C(=O)c2c[nH]c3ncc(Cl)cc23)c1F [PLX-4720],,,2.5,3.8,
CCN1CCN(c2ccc(Nc3cc(N(C)C(=O)Nc4c(Cl)c(OC)cc(OC)c4Cl)ncn3)cc2)CC1 [NVP-BGJ398],0.0,,,,"TM Shift LIMK1 (K) ([1]; listed as BGJ398 (NVP-BGJ398)): 0.7 K; TM Shift LIMK2 (K) ([2]; 10 µM): -0.5 K; TM Shift LIMK2 (K) ([2]; listed as BGJ398 (NVP-BGJ398), 10 µM): 0.5 K"
Cc1cc(Nc2ncnc3ccc(-c4ccc(CNCCS(C)(=O)=O)o4)cc23)ccc1Oc1ccn2ncnc2c1 [HER2-Inhibitor-1],2.0,0.2,,,
CCc1cncnc1N1CCN(Cc2nc3ccc(C(F)(F)F)cc3[nH]2)CC1 [PF-04708671],1.6,,,,TM Shift LIMK2 (K) ([2]; 10 µM): 1.7 K
Fc1cc(-c2cccc3ncc(-c4cnn(C5CCNCC5)c4)nc23)cc(F)c1CN1CCOCC1 [NVP-BSK805 2HCl],1.5,0.2,,,
CNC(=O)c1ccc(-c2cnc3ncc(Cc4ccc5ncccc5c4)n3n2)cc1F [INCB28060],,,-0.2,0,
Cc1ccc(-n2nc(C(C)(C)C)cc2NC(=O)Nc2ccc(OCCN3CCOCC3)c3ccccc23)cc1 [Doramapimod],-0.1,,,0.9,TM Shift LIMK1 (K) ([1]; listed as BIRB 796 (Doramapimod)): 0.5 K; TM Shift LIMK2 (K) ([2]; 10 µM): 0.7 K
COc1cc(Nc2ncc(F)c(Nc3ccc4c(n3)NC(=O)C(C)(C)O4)n2)cc(OC)c1OC [Tamatinib],,,5.5,3,
Nc1nc(N)c2nc(-c3cccc(O)c3)c(-c3cccc(O)c3)nc2n1 [TG100-115],1.3,2.4,,,
O=C(O)[C@]1(Cc2cccc(Nc3nccs3)n2)CC[C@@H](Oc2cccc(Cl)c2F)CC1 [MK-5108 (VX-689)],,,1.5,0.9,
Oc1ccc(-c2nc(-c3ccc(F)cc3)c(-c3ccncc3)[nH]2)cc1 [SB202190 (FHPI)],0.7,0.2,,,
C=CC(=O)Nc1cccc(Nc2nc(Nc3ccc(OCCOC)cc3)ncc2F)c1 [AVL-292],,,3.8,3.1,
C[C@@H](Oc1ccc2[nH]nc(/C=C/c3cnn(CCO)c3)c2c1)c1c(Cl)cncc1Cl [LY2874455],,,2.5,0.1,
CC(C)N(CCC(=O)c1ccc2ccccc2c1)Cc1ccccc1.Cl [ZM 39923 HCl],0.2,-1.4,,,
O=C1Nc2cc(Br)ccc2/C1=C1/Nc2ccccc2/C1=N\O [BIO],0.2,2.2,,,
Cc1nc(NC(=O)N2CCC[C@H]2C(N)=O)sc1-c1csc(C(C)(C)C)n1 [A66],0.0,1.0,,,
COc1ccc(Cl)c(Nc2nc3ccccc3nc2NS(=O)(=O)c2cccc(NC(=O)C(C)(C)N)c2)c1 [Pilaralisib],,,-0.1,0.4,
O=C(NOCC1CC1)c1ccc(F)c(F)c1Nc1ccc(I)cc1Cl [PD184352 (CI-1040)],,,0.1,0.9,
COc1ccc(-c2ccc3c(N4CCOC[C@@H]4C)nc(N4CCOC[C@@H]4C)nc3n2)cc1CO [AZD8055],,,0.9,0.8,

Structure (SMILES),TM Shift LIMK1 (K) [1] [K],TM Shift LIMK2 (K) [2] [K],ΔTm at 10 µM [1] [°C],ΔTm at 10 µM [2] [°C],further results
CCCCCCCCCCCCc1ccc(S(=O)(=O)Nc2nncs2)cc1 [PHT-427],0.6,1.6,,,
COc1ccc(S(=O)(=O)N(C(C)=O)c2ccccc2/C=C/c2cc[n+]([O-])cc2)cc1 [HMN-214],,,2.5,1,
CNC(=O)Nc1ccc(-c2nc(N3CC4CCC(C3)O4)c3cnn(C4CCC5(CC4)OCCO5)c3n2)cc1 [WYE-125132 (WYE-132)],0.5,0.9,,,
Nc1cccc(-c2cc3c(Oc4cccc(O)c4)ncnc3[nH]2)c1 [TWS119],5.2,4.1,,,
Cc1nc(NC(=O)N2CCC[C@H]2C(N)=O)sc1-c1ccnc(C(C)(C)C(F)(F)F)c1 [BYL719],,,-0.5,-0.2,
Cc1cnc(Nc2ccc(OCCN3CCCC3)cc2)nc1Nc1cccc(S(=O)(=O)NC(C)(C)C)c1 [TG101348 (SAR302503)],2.0,,,,TM Shift LIMK2 (K) ([2]; 10 µM): 0.7 K
Oc1c2ccccc2c2c3c(cccc13)N=N2 [SP600125],,,1,2.1,
"Clc1ccc(Nc2nnc(Cc3ccncc3)c3ccccc23)cc1 [Vatalanib (PTK787) 2HCl, Vatalanib]",,,-0.5,-0.3,
COc1ccc(Cl)cc1NC(=O)Nc1cc(C)nc2ccccc12 [PQ 401],0.2,-0.9,,,
CN(C)C[C@@H]1CCn2cc(c3ccccc32)C2=C(C(=O)NC2=O)c2cn(c3ccccc23)CCO1 [Ruboxistaurin],,,1,0.4,
O=C1NC(=O)/C(=C/c2cccc(C(F)(F)F)c2)S1 [SMI-4a],-0.2,-0.4,,,
CC(C)(C)c1cc(C=C(C#N)C#N)cc(Br)c1O [AG-1024],2.5,4.3,,,
"Cc1cc2c(F)c(Oc3ncnn4cc(OC[C@@H](C)O)c(C)c34)ccc2[nH]1 [Brivanib (BMS-540215), Brivanib]",,,0.8,0.3,
"CN1CCN(C2CCN(C(=O)Nc3cc(Oc4ccc(NC(=O)C5(C(=O)Nc6ccc(F)cc6)CC5)c(F)c4)ccn3)CC2)CC1 [Golvatinib (E7050), Golvatinib]",,,3,1,
CCN(CC)CCCCNc1ncc2cc(-c3cc(OC)cc(OC)c3)c(NC(=O)NC(C)(C)C)nc2n1 [PD173074],,,1.1,1.2,
"CCC[C@H](NC(=O)/C(C#N)=C/c1cccc(Br)n1)c1ccccc1 [Degrasyn (WP1130), Degrasyn]",-1.0,0.7,,,
CCn1c(=O)c(-c2cc[nH]n2)cc2c(C)nc(N)nc21 [Voxtalisib],0.2,,,,TM Shift LIMK2 (K) ([2]; 10 µM): 0.4 K
C=CC(=O)Nc1cccc(Oc2nc(Nc3ccc(N4CCN(C)CC4)cc3OC)ncc2Cl)c1 [WZ4002],,,1,1.8,
C#Cc1cccc(Nc2ncnc3cc(OCCOC)c(OCCO)cc23)c1 [OSI-420],0.1,-0.1,,,
O=C1NC(=O)/C(=C/c2ccc3nccc(-c4ccncc4)c3c2)S1 [GSK1059615],,,1.2,2.6,
Cc1cc(Nc2cc(CN3CCOCC3)c3nc(C)c(Cc4ccc(Cl)cc4F)n3n2)n[nH]1 [LY2784544],,,5,,TM Shift LIMK2 (K) ([2]; 10 µM): 1.1 K
COc1ccc(-c2ccc3c(N4CCOCC4)nc(N4C[C@@H](C)O[C@@H](C)C4)nc3n2)cc1CO [KU-0063794],,,0.3,2,
CNC(=O)c1c(F)cccc1Nc1nc(Nc2cc3c(cc2OC)CCN3C(=O)CN(C)C)nc2[nH]ccc12 [GSK1838705A],0.4,1.0,,,
"CNC(=O)c1cc(Oc2ccc(NC(=O)Nc3ccc(Cl)c(C(F)(F)F)c3)c(F)c2)ccn1 [Regorafenib (BAY 73-4506), Regorafenib]",,,0,0.7,
C[C@@H](Oc1cc(-n2cnc3ccc(CN4CCN(C)CC4)cc32)sc1C(N)=O)c1ccccc1C(F)(F)F [GSK461364],,,1.1,0.8,
CC(C)(O)CC(=O)NCCn1ccc2ncnc(Nc3ccc(Oc4cccc(C(F)(F)F)c4)c(Cl)c3)c21 [TAK-285],,,-1.1,0,
Cl.Cl.O=S(=O)(NCCNC/C=C/c1ccc(Br)cc1)c1cccc2cnccc12 [H 89 2HCl],1.8,3.9,,,
